The source of these data is patent EP3339292A1, “COCRYSTALS OF APREMILAST” (Zaklady Farmaceutyczne Polpharma SA, priority 2016, dated 2018).

What all share (type): physicochemical
Data set [1] is described as follows: Dissolution studies (Ph. Eur. paddle method, tablets, HPLC analysis). The conditions noted are these: buffer pH 6.8 + 0.3% SLS, result in words. The protocol:
Dissolution studies were performed using a Hanson SR8PLUS dissolution apparatus, according to European Pharmacopoeia apparatus, paddle method. The samples were tested in 900mL pH 6.8 with 0.3% SLS at 37.0°C +/- 0.5°C and the paddle rotation speed was set at 75 rpm. Dissolution study was conducted for 60min and samples were analyzed using HPLC method.
• Injection Volume: 0.5, 0.2 µl; • Run Time: 15.0 minutes; • Column: Symmetry C18; 250x4,6mm; 5µm, Vial: 1:A,1, 1:c,7, 1:c,8; • Mobile phase: gradient: acetonitrile : buffer (1 vol. TEA and 150 vol. 2,7g/l KH2PO4, pH2,0 adjust with H3PO4); • Column temp: 25°C; and • Flow: 1 ml/min.

The nature of data set [2]: Moisture sorption analysis (Dynamic Vapour Sorption, DVS). The note with it: result in words. The protocol:
Water Vapour Sorption isotherms were obtained using a Dynamic Vapour Sorption apparatus (model: DVS - Advantage, supplier: Surface Measurement Systems Limited). The DVS apparatus consists of an ultra-microbalance housed inside a temperature-controlled cabinet. The sample was placed into a DVS sample pan under a stream of nitrogen (200 sccm) at 25°C. The humidity was increased ramping in 10% RH (relative humidity) steps from close to 0% RH to 90% RH (sorption phase). Next the humidity was decreased in a similar fashion for the desorption phase. The sample was held at each RH step for mass stabilization (dm/dt 0.02 %/min) but not less than 10 minutes. Two cycles of sorption and desorption were investigated.

Data set [3] is described as follows: Solubility of cocrystal. The conditions noted are these: RT.

Take `CCOc1cc([C@@H](CS(C)(=O)=O)N2C(=O)c3cccc(NC(C)=O)c3C2=O)ccc1OC.O=C(O)c1ccc(O)cc1` [APM-4HB, Cocrystal of N-[2-[(1S)-1-(3-ethoxy-4-methoxyphenyl)-2-(methylsulfonyl)ethyl]-1,3-dioxo-2,3-dihydro-1H-isoindol-4-yl]acetamide and 4-hydroxybenzoic acid]: the “dissolution profile compared to prior art Form B of Apremilast” value in data set [1] (listed as cocrystal of Apremilast with 4-hydroxybenzoic acid) is listed as “higher dissolution rate”; in data set [1] (listed as cocrystals of Apremilast with 4-hydroxybenzoic acid) it was “superior dissolution profile”. In addition, the hygroscopicity entry in data set [2] is “slightly hygroscopic”. Besides, the Solubility result in data set [3] is recorded as “Solubility: 42.5µg/ml (RT)”.

Take `CCOc1cc([C@@H](CS(C)(=O)=O)N2C(=O)c3cccc(NC(C)=O)c3C2=O)ccc1OC.Cn1c(=O)c2c(ncn2C)n(C)c1=O` [APM-CAF, Cocrystal of N-[2-[(1 S)-1-(3-ethoxy-4-methoxyphenyl)-2-(methylsulfonyl)ethyl]-1,3-dioxo-2,3-dihydro-1H-isoindol-4-yl]acetamide and 1,3,7-trimethylpurine-2,6-dione (caffeine)]: the “dissolution profile compared to prior art Form B of Apremilast” value in data set [1] was “higher dissolution rate”. The hygroscopicity result in data set [2] is reported as “slightly hygroscopic”.
